{
  "source": "patent US20260191809A1",
  "about": "“Pharmaceutical Compositions Of D10-Docosahexaenoic Acid Or Esters Thereof” (BioJiva LLC, priority 2022, published 2026)",
  "key": {"geographic atrophy": {"system": "geographic atrophy", "assay": "Protection against geographic atrophy after intravitreal ferric ammonium citrate", "type": "in vivo, C57BL/6J mice", "source_text": "In this example, two cohorts of adult male wild-type C57BL/6J mice (Jackson Labs) were used. Both cohorts were fed identical feed containing 0.25% or 0.5% D-DHA or matching amounts of DHA as controls. After 4 weeks, the mice were given an intravitreal injection of 1 microliter of 0.5 millimolar ferric ammonium citrate diluted in 0.9% saline (test) or 1 microliter of 0.9% saline (control). Mice were then continued on their respective diets for 4 weeks after injection in order to evaluate whether D-DHA could protect against geographic atrophy which is related to AMD."}, "[1]": {"assay": "Predicted steady-state D-DHA substitution and plasma decline without dosing in patients, modeled from the mouse data", "set-up": "species or system human", "settings": "for D-DHA substitution rate at steady-state (% of total DHA): DHA in human diet 130 mg", "source_text": "In contrast to controlled experimental diets, naturally occurring DHA is consumed by patients treated with D-DHA which can dilute the relative percentage of administered D-DHA absorbed with the total DHA pool and its final concentration at steady state in blood and eventually in the target tissue such as retina. The data and standard curves referred to above allow for the determination of retinal steady-state active D-DHA concentrations with reasonable accuracy by calculating the D-DHA/total DHA ratio in plasma and/or red blood cells. Table 4 exemplifies this by using a mean daily dietary intake of about 130 mg of DHA per day (which represents the 90th percentile of the mean usual DHA intake by males >51 years of age in the US.\nFIGS. 3, 4, 5, and 6 illustrate how measuring plasma and red blood cell active D-DHA concentrations can be used to predict expected retinal steady-state concentrations. With a known fixed daily dose and the measured of active D-DHA substitution rate at steady-state, this also allows to approximate and monitor the mean dietary DHA intake of individual patients and permits either a timely adjustment of the daily D-DHA dose or dietary interventions to reduce natural DHA intake until the desired therapeutic active D-DHA substitution levels, preferably about 50% or more, can be reached.\nIn each case, the first order kinetics evidence that a dose of 250 mg dose of D-DHA will provide for a steady-state ratio of active D-DHA based on the total DHA concentration present, as set forth in Table 4. Extrapolating backwards from the case in Table 4, a dose of at least 130 mg/day of D-DHA should provide a 1:1 ratio of active D-DHA to DHA. That ratio has been shown above to be therapeutic. And a dose of 250 mg of higher should provide a ratio of 1.9:1 or higher which provides a margin for non-compliance as described herein above.\nTables 5, 6, and 7 are based on Table 2 and describe the time it takes for plasma D-DHA levels to fall below 50% or below 20% with 5 different daily doses of D-DHA in (i) patients in the 90th percentile of daily intake consuming up to 130 mg DHA (Table 5), (ii) those in the 95th percentile with a daily intake of up to 180 mg DHA (Table 6), and (iii) an example of a patient consuming more than one meal of oily fish per week with up to 260 mg daily DHA intake."}, "[2]": {"settings": "mouse, in vivo"}, "[3]": {"assay": "Predicted steady-state D-DHA substitution and plasma decline without dosing in patients, modeled from the mouse data", "set-up": "species or system human"}, "[4]": {"settings": "Daily D-DHA Dose 250 mg, Background DHA/Day 130 mg"}, "[5]": {"settings": "Daily D-DHA Dose 250 mg, Background DHA/Day 180 mg"}, "[6]": {"settings": "Daily D-DHA Dose 250 mg, Background DHA/Day 260 mg"}, "[7]": {"settings": "Daily D-DHA Dose 500 mg, Background DHA/Day 130 mg"}, "[8]": {"settings": "Daily D-DHA Dose 500 mg, Background DHA/Day 180 mg"}, "[9]": {"settings": "Daily D-DHA Dose 500 mg, Background DHA/Day 260 mg"}, "[10]": {"settings": "Daily D-DHA Dose 750 mg, Background DHA/Day 260 mg"}, "[11]": {"settings": "Daily D-DHA Dose 1000 mg, Background DHA/Day 260 mg"}},
  "data": [
    {"smiles": "[2H]C([2H])(/C=C\\CC)/C=C\\C([2H])([2H])/C=C\\C([2H])([2H])/C=C\\C([2H])([2H])/C=C\\C([2H])([2H])/C=C\\CCC(=O)O", "note": "[D-DHA, D-10-docosahexaenoic acid]", "values": [
      {"measurement": "protection against geographic atrophy", "setting": "geographic atrophy; concentration of D-DHA at least 50% of the total DHA in the retina, feed 0.25% or 0.5% D-DHA, 4 weeks after iron injection", "value": "fully protected"},
      {"measurement": "protection against geographic atrophy", "setting": "geographic atrophy; lower concentrations of D-DHA to DHA in the retina (below 50%)", "value": "protection was achieved but at reduced rates"},
      {"measurement": "protection against geographic atrophy", "setting": "geographic atrophy; ratios of about 1:4 of D-DHA to DHA", "value": "protection is accorded"},
      {"measurement": "protection against geographic atrophy", "setting": "geographic atrophy; ratios of at least about 1:1 D-DHA to DHA", "value": "maximal"},
      {"measurement": "ratio of D-DHA to DHA at steady state", "setting": "[1]; 250 mg D-DHA per day, on average about 130 mg per day of DHA, plasma, red blood cells, liver, skeletal muscle", "value": "1.92 to 1"},
      {"measurement": "Time to reach 20% in Plasma (0.2:1 D-DHA to DHA Ratio) w/o taking oral D-DHA", "setting": "[1]; [4]", "value": "≤ 77", "unit": "days"},
      {"measurement": "Time to reach ≤50% in Plasma (1:1 D-DHA to DHA Ratio) w/o taking oral D-DHA", "setting": "[1]; [4]", "value": "≤ 22", "unit": "days"},
      {"measurement": "Days to reach ≤50% in Plasma (1:1 D-DHA to DHA Ratio) w/o taking oral D-DHA", "setting": "[1]; [5]", "value": "≤ 11", "unit": "days"},
      {"measurement": "Time to reach 20% in Plasma (0.2:1 D-DHA to DHA Ratio) w/o taking oral D-DHA", "setting": "[1]; [5]", "value": "≤ 66", "unit": "days"},
      {"measurement": "Days to reach ≤50% in Plasma (1:1 D-DHA to DHA Ratio) w/o taking oral D-DHA", "setting": "[1]; [6]", "value": "below 50%"},
      {"measurement": "Time to reach 20% in Plasma (0.2:1 D-DHA to DHA Ratio) w/o taking oral D-DHA", "setting": "[1]; [6]", "value": "≤ 29", "unit": "days"},
      {"measurement": "Time to reach 20% in Plasma (0.2:1 D-DHA to DHA Ratio) w/o taking oral D-DHA", "setting": "[1]; [7]", "value": "≤ 46", "unit": "days"},
      {"measurement": "Time to reach ≤50% in Plasma (1:1 D-DHA to DHA Ratio) w/o taking oral D-DHA", "setting": "[1]; [7]", "value": "≤ 6", "unit": "days"},
      {"measurement": "Days to reach ≤50% in Plasma (1:1 D-DHA to DHA Ratio) w/o taking oral D-DHA", "setting": "[1]; [8]", "value": "≤ 35", "unit": "days"},
      {"measurement": "Time to reach 20% in Plasma (0.2:1 D-DHA to DHA Ratio) w/o taking oral D-DHA", "setting": "[1]; [8]", "value": "≤ 90", "unit": "days"},
      {"measurement": "Days to reach ≤50% in Plasma (1:1 D-DHA to DHA Ratio) w/o taking oral D-DHA", "setting": "[1]; [9]", "value": "≤ 8", "unit": "days"},
      {"measurement": "Time to reach 20% in Plasma (0.2:1 D-DHA to DHA Ratio) w/o taking oral D-DHA", "setting": "[1]; [9]", "value": "≤ 63", "unit": "days"},
      {"measurement": "Time to reach ≤50% in Plasma (1:1 D-DHA to DHA Ratio) w/o taking oral D-DHA", "setting": "[1]; Daily D-DHA Dose 750 mg, Background DHA/Day 130 mg", "value": "≤ 60", "unit": "days"},
      {"measurement": "Days to reach ≤50% in Plasma (1:1 D-DHA to DHA Ratio) w/o taking oral D-DHA", "setting": "[1]; Daily D-DHA Dose 750 mg, Background DHA/Day 180 mg", "value": "≤ 49", "unit": "days"},
      {"measurement": "Days to reach ≤50% in Plasma (1:1 D-DHA to DHA Ratio) w/o taking oral D-DHA", "setting": "[1]; [10]", "value": "≤ 26", "unit": "days"},
      {"measurement": "Time to reach 20% in Plasma (0.2:1 D-DHA to DHA Ratio) w/o taking oral D-DHA", "setting": "[1]; [10]", "value": "≤ 81", "unit": "days"},
      {"measurement": "Time to reach ≤50% in Plasma (1:1 D-DHA to DHA Ratio) w/o taking oral D-DHA", "setting": "[1]; Daily D-DHA Dose 1000 mg, Background DHA/Day 130 mg", "value": "≤ 70", "unit": "days"},
      {"measurement": "Days to reach ≤50% in Plasma (1:1 D-DHA to DHA Ratio) w/o taking oral D-DHA", "setting": "[1]; Daily D-DHA Dose 1000 mg, Background DHA/Day 180 mg", "value": "≤ 59", "unit": "days"},
      {"measurement": "Days to reach ≤50% in Plasma (1:1 D-DHA to DHA Ratio) w/o taking oral D-DHA", "setting": "[1]; [11]", "value": "≤ 38", "unit": "days"},
      {"measurement": "Time to reach 20% in Plasma (0.2:1 D-DHA to DHA Ratio) w/o taking oral D-DHA", "setting": "[1]; [11]", "value": "≤ 93", "unit": "days"},
      {"measurement": "Time to reach ≤50% in Plasma (1:1 D-DHA to DHA Ratio) w/o taking oral D-DHA", "setting": "[1]; Daily D-DHA Dose 1250 mg, Background DHA/Day 130 mg", "value": "≤ 77", "unit": "days"},
      {"measurement": "Days to reach ≤50% in Plasma (1:1 D-DHA to DHA Ratio) w/o taking oral D-DHA", "setting": "[1]; Daily D-DHA Dose 1250 mg, Background DHA/Day 180 mg", "value": "≤ 67", "unit": "days"},
      {"measurement": "Days to reach ≤50% in Plasma (1:1 D-DHA to DHA Ratio) w/o taking oral D-DHA", "setting": "[1]; Daily D-DHA Dose 1250 mg, Background DHA/Day 260 mg", "value": "≤ 47", "unit": "days"},
      {"measurement": "D-DHA substitution rate at steady-state (% of total DHA)", "setting": "[1]; Fixed daily D-DHA dose 250 mg", "value": 66, "unit": "%"},
      {"measurement": "D-DHA substitution rate at steady-state (% of total DHA)", "setting": "[1]; Fixed daily D-DHA dose 500 mg", "value": 79, "unit": "%"},
      {"measurement": "D-DHA substitution rate at steady-state (% of total DHA)", "setting": "[1]; Fixed daily D-DHA dose 1000 mg", "value": 88, "unit": "%"},
      {"measurement": "time to plasma steady state concentration of active D-DHA after the start of therapy", "setting": "[1]; plasma, patients", "value": "about 14 days"},
      {"measurement": "accretion half-life", "setting": "[2]", "value": "~210", "unit": "h"},
      {"measurement": "time to red blood cell steady state concentration of active D-DHA after the start of therapy", "setting": "[3]; red blood cell, patients", "value": "about 45 days"},
      {"measurement": "time to steady state concentration of active D-DHA after start of therapy", "setting": "[3]; skeletal muscle tissue", "value": "about 11 weeks"}
    ]}
  ]
}
